According to ChEMBL document CHEMBL3507680, “University of Dundee, Gates Library screen for HepG2 cell viability”:

Assay: Human HepG2 cell viability assay in 384 well format
Type: toxicity, cell-based
Design: dose 125 nL, time 70.5 hour; concentration not given beside the values
Conditions: HepG2 cells, read-out: Inhibition

| SMILES | cytotoxicity at 70.5 h |
| --- | --- |
| CCOC(C)c1noc(CN(C)C(=O)c2ccncc2)n1 (stereo not drawn) | 0.244% |
| CC(C)c1nsc(NC2CCOC3(CCCC3)C2)n1 (stereo not drawn) | -0.215% |
| Cc1nsc(NC2CCOC3(CCCCC3)C2)n1 (stereo not drawn) | -8.47% |
| COCCCOc1ccc(C(=O)N(Cc2cnn(C)c2)C(C)C)cn1 | -7.46% |
| CN1CCCC(N(C)S(=O)(=O)c2cccc3ncccc23)C1 (stereo not drawn) | -1.85% |
| COCC(C)NC(=O)CCCn1cnc2ccccc2c1=O (stereo not drawn) | -5.09% |
| O=c1cc(CNCc2ccc3c(c2)OCO3)nc2ccccn12 | -6.34% |
| O=C(CCC1CCCO1)NCCCC(=O)Nc1ccc(Cl)cc1 (stereo not drawn) | -12% |
| O=C(CCn1c(=O)oc2ccccc21)NCC(O)c1ccc(F)c(F)c1 (stereo not drawn) | -4.98% |
| Fc1ccc(C2CN(CCc3ccncc3)CCO2)cc1 (stereo not drawn) | 14.4% |
| O=C(Cc1ccc(F)cc1)NCCNS(=O)(=O)C1CCCC1 | -8.77% |
| c1ccc(C2CN(CCc3ccncc3)CCO2)cc1 (stereo not drawn) | -9.13% |
| Cc1csc(CNC(=O)Nc2ccc3c(c2)OCO3)n1 | -7.99% |
| Cc1cc(C(=O)Nc2ccn(CCCN3CCCC3)n2)no1 | 1.38% |
| O=C(NCC(CO)Cc1cccc(OC(F)(F)F)c1)c1cnccn1 (stereo not drawn) | 19.2% |
| CCc1cnc(CCNS(C)(=O)=O)s1 | -6.67% |
| O=C(NCCn1cnnc1C1CC1)c1c(O)cc(F)cc1F | -11.9% |
| O=C(NCC1CCC2(CC1)OCCO2)c1cccc(-n2cccn2)c1 | 19.6% |
| CC(C)(C)OC(=O)N1CCN(S(=O)(=O)CCCC#N)C2(CCCCC2)C1 | -4.48% |
| CC(C)(NS(C)(=O)=O)c1nc(-c2ccc(F)c(F)c2)no1 | -5.95% |
| Cc1ccc(-c2noc(C(C)(C)NS(C)(=O)=O)n2)cc1F | -2.69% |
| Cc1occc1C(=O)N1CCCS1(=O)=O | -12% |
| CNC(=O)NCC(CO)Cc1ccccc1OC(F)(F)F (stereo not drawn) | -5.84% |
| COc1cccc(CNc2nnc(C(C)(C)C)o2)c1OC | -11.6% |

| SMILES | cytotoxicity at 70.5 h |
| --- | --- |
| Cc1cnc(CN2CCN(c3ccnc(-c4ccccc4)n3)CC2)cn1 | -10.6% |
| O=S(=O)(N1CCCC1)N(Cc1ccccc1)CC1CCCO1 (stereo not drawn) | -7.82% |
| CCN(CC1CCCO1)S(=O)(=O)N1CCCCCC1 (stereo not drawn) | -8.65% |
| Cc1noc(C)c1CN1CCN(c2ccnc(-c3ccccc3)n2)CC1 | 26.5% |
| Clc1ccccc1C1CN(CCc2ccncc2)CCO1 (stereo not drawn) | -6.68% |
| CCc1nccn1CC(=O)Nc1cccc(C(=O)OC)c1 | -5.31% |
| Cc1cc(C(=O)Nc2ccn(CCCN3CCCC3)n2)c(C)o1 | -0.537% |
| CC1CN(CCc2ccncc2)CCO1 (stereo not drawn) | 3.7% |
| CCC(=O)Nc1ccc(F)c(S(=O)(=O)NC(C)(C)C)c1 | 8.07% |
| Cc1cn2c(n1)C(CNCc1ccc(C)s1)CCC2 (stereo not drawn) | 8.09% |
| Cc1ccccc1CN(C)C(=O)c1ccoc1 | 3.46% |
| Cc1ccc(CS(=O)(=O)Cc2nc(N)nc(N(C)C)n2)cc1 | 0.995% |
| CC(C)c1ccc(S(=O)(=O)Cc2nc(N)nc(N(C)C)n2)cc1 | -1.91% |
| CC(C)(C)c1cnc(CN2CCC(NC(=O)Nc3ccccc3)CC2)o1 | 15.4% |
| CCCC(C)NC(=O)c1ccc(-c2ccco2)[nH]c1=O (stereo not drawn) | -2.99% |
| CCCN(CC1CC1)C(=O)Cn1ccccc1=O | -3.4% |
| CCC(=O)N1CCN(C(=O)NC2CCc3ccccc3C2)CC1 (stereo not drawn) | -4.1% |
| CC(C)(C)c1cnc(CN2CCC(NC(=O)C3CCOCC3)CC2)o1 | -5% |
| Nc1cc2c(nn1)CCN(C(=O)c1csc(-c3ccco3)n1)C2 | -4.34% |
| O=C(NC1CCc2ccccc2C1)N1CCN(C(=O)C2CCC2)CC1 (stereo not drawn) | -5.12% |
| COC(=O)c1ccc(C(=O)NCc2ccc(Br)cc2)cn1 | -2.31% |
| Cn1cnc(-c2nc(C(=O)NCCN3CCOCC3)c3ccccn23)c1 | -2.81% |
| Cn1cnc(-c2nc(C(=O)NCCN3CCCC3)c3ccccn23)c1 | -5.67% |
| N#Cc1ccc(NC(=O)C2CSCN2)cc1 (stereo not drawn) | -6.81% |
